Like-named read-outs stand apart in the source and are kept apart here.
Tested on: HBV rcDNA in HepDE19 cells
Assay: HepDE19 assay with bDNA quantitation of HBV rcDNA
Format: cell-based, hepatitis B virus
Settings: inhibition of rcDNA formation, bDNA quantitation, read-out: DE-19bDNA EC50
[1] = Hepatitis B virus, HepDE19, HepDE19 assay

SMILES | EC50 [1] | EC50 (HepDE19 assay)
CN([C@@H]1COCc2[nH]c(=O)c3cc(F)c(F)cc3c21)S(=O)(=O)c1cccc(Cl)c1 [Compound 144, (S)-3-Chloro-N-(8,9-difluoro-6-oxo-1,4,5,6-tetrahydro-2H-pyrano[3,4-c]isoquinolin-1-yl)-N-methylbenzenesulfonamide] | 12000 nM | –
CN(C(=O)c1cc2cnc(Cl)cc2[nH]1)[C@@H]1COCc2[nH]c(=O)c3cc(F)c(F)cc3c21 [Compound 309, (S)-6-chloro-N-(8,9-difluoro-6-oxo-1,4,5,6-tetrahydro-2H-pyrano[3,4-c]isoquinolin-1-yl)-N-methyl-1H-pyrrolo[3,2-c]pyridine-2-carboxamide] | 50 nM | –
CN(C(=O)c1ccc(-c2cc(F)cc(F)c2)cc1)[C@@H]1COCc2[nH]c(=O)c3cc(F)c(F)cc3c21 [Compound 286, (S)-N-(8,9-Difluoro-6-oxo-1,4,5,6-tetrahydro-2H-pyrano[3,4-c]isoquinolin-1-yl)-3′,5′-difluoro-N-methyl-[1,1′-biphenyl]-4-carboxamide] | 12900 nM | –
CN(C(=O)c1cc2sccc2[nH]1)C1CNCc2[nH]c(=O)c3cc(F)c(F)cc3c21 (single isomer, unassigned) [Compound 420, N-(8,9-Difluoro-6-oxo-1,2,3,4,5,6-hexahydrobenzo[c][1,7]naphthyridin-1-yl)-N-methyl-4H-thieno[3,2-b]pyrrole-5-carboxamide] | – | 660 nM
CN(C(=O)c1cccc(Br)c1)[C@@H]1COCc2[nH]c(=O)c3cc(F)c(F)cc3c21 [Compound 129, (S)-3-Bromo-N-(8,9-difluoro-6-oxo-1,4,5,6-tetrahydro-2H-pyrano[3,4-c]isoquinolin-1-yl)-N-methylbenzamide] | 90 nM | –
CN(C(=O)c1cc2c(Cl)cccc2[nH]1)C1CNCc2[nH]c(=O)c3cc(F)c(F)cc3c21 (single isomer, unassigned) [Compound 441, 4-Chloro-N-(8,9-difluoro-6-oxo-1,2,3,4,5,6-hexahydrobenzo[c][1,7]naphthyridin-1-yl)-N-methyl-1H-indole-2-carboxamide] | – | 20 nM
CN(C(=O)C1Cc2c(F)cc(F)cc2N1)C1COCc2[nH]c(=O)c3cc(F)c(F)cc3c21 (centres unmarked) [Compound 14, N-(8,9-Difluoro-6-oxo-1,4,5,6-tetrahydro-2H-pyrano[3,4-c]isoquinolin-1-yl)-4,6-difluoro-N-methylindoline-2-carboxamide] | – | 40 nM
CN(C(=O)c1ccc(C(F)(F)F)c(F)c1)[C@@H]1COCc2[nH]c(=O)c3cc(F)c(F)cc3c21 [Compound 74, (S)-N-(8,9-Difluoro-6-oxo-1,4,5,6-tetrahydro-2H-pyrano[3,4-c]isoquinolin-1-yl)-3-fluoro-N-methyl-4-(trifluoromethyl)benzamide] | 10 nM | –
CN(C(=O)c1cc2cccc(C(F)F)n2c1)[C@@H]1COCc2[nH]c(=O)c3cc(F)c(F)cc3c21 [Compound 266, (S)-N-(8,9-Difluoro-6-oxo-1,4,5,6-tetrahydro-2H-pyrano[3,4-c]isoquinolin-1-yl)-5-(difluoromethyl)-N-methylindolizine-2-carboxamide] | 20 nM | –
CN(C(=O)c1cccc(C(F)F)c1)[C@@H]1COCc2[nH]c(=O)c3cc(F)c(F)cc3c21 [Compound 86, (S)-N-(8,9-Difluoro-6-oxo-1,4,5,6-tetrahydro-2H-pyrano[3,4-c]isoquinolin-1-yl)-3-(difluoromethyl)-N-methylbenzamide] | 30 nM | –
CN(C(=O)c1cc2cc(F)c(F)cc2[nH]1)[C@@H]1CCC(O)c2[nH]c(=O)c3cc(F)c(F)cc3c21 (stereo partly drawn) [Compound 503, N-((1R)-8,9-difluoro-4-hydroxy-6-oxo-1,2,3,4,5,6-hexahydrophenanthridin-1-yl)-5,6-difluoro-N-methyl-1H-indole-2-carboxamide] | 20 nM | –
CN(C(=O)c1cc2c(F)cccc2[nH]1)C1CNCc2[nH]c(=O)c3cc(F)c(F)cc3c21 (single isomer, unassigned) [Compound 105, N-(8,9-Difluoro-6-oxo-1,2,3,4,5,6-hexahydrobenzo[c][1,7]naphthyridin-1-yl)-4-fluoro-N-methyl-1H-indole-2-carboxamide] | – | 10 nM
CN(C(=O)c1cccc(-c2cccc(F)c2)c1)C1CNCc2[nH]c(=O)c3cc(F)c(F)cc3c21 (single isomer, unassigned) [Compound 304, N-(8,9-Difluoro-6-oxo-1,2,3,4,5,6-hexahydrobenzo[c][1,7]naphthyridin-1-yl)-3′-fluoro-N-methyl-[1,1′-biphenyl]-3-carboxamide] | 20000 nM | –
Cc1cc(F)cc2[nH]c(C(=O)N(C)C3CNCc4[nH]c(=O)c5cc(F)c(F)cc5c43)cc12 (single isomer, unassigned) [Compound 459, N-(8,9-difluoro-6-oxo-1,2,3,4,5,6-hexahydrobenzo[c][1,7]naphthyridin-1-yl)-6-fluoro-N,4-dimethyl-1H-indole-2-carboxamide] | – | 10 nM
CN(C(=O)c1cc(-c2ccc(F)cc2)n[nH]1)[C@@H]1COCc2[nH]c(=O)c3cc(F)c(F)cc3c21 [Compound 126, (S)-N-(8,9-Difluoro-6-oxo-1,4,5,6-tetrahydro-2H-pyrano[3,4-c]isoquinolin-1-yl)-3-(4-fluorophenyl)-N-methyl-1H-pyrazole-5-carboxamide] | 21000 nM | –
CN(C(=O)c1cccc(Cl)c1)[C@@H]1COCc2[nH]c(=O)c3cc(F)c(F)cc3c21 [Compound 128, (S)-3-Chloro-N-(8,9-difluoro-6-oxo-1,4,5,6-tetrahydro-2H-pyrano[3,4-c]isoquinolin-1-yl)-N-methylbenzamide] | 90 nM | –
CN(C(=O)c1cc2cccc(F)c2[nH]1)C1CNCc2[nH]c(=O)c3cc(F)c(F)cc3c21 (single isomer, unassigned) [Compound 113, N-(8,9-Difluoro-6-oxo-1,2,3,4,5,6-hexahydrobenzo[c][1,7]naphthyridin-1-yl)-7-fluoro-N-methyl-1H-indole-2-carboxamide] | – | 430 nM
CN(C(=O)c1cc(F)c(C(F)F)c(F)c1)C1CNCc2[nH]c(=O)c3cc(F)c(F)cc3c21 (single isomer, unassigned) [Compound 184, N-(8,9-Difluoro-6-oxo-1,2,3,4,5,6-hexahydrobenzo[c][1,7]naphthyridin-1-yl)-4-(difluoromethyl)-3,5-difluoro-N-methylbenzamide] | – | 70 nM
CN(C(=O)c1cc2cc(F)c(C(F)F)cc2[nH]1)C1CNCc2[nH]c(=O)c3cc(F)c(F)cc3c21 (single isomer, unassigned) [Compound 220, N-(8,9-Difluoro-6-oxo-1,2,3,4,5,6-hexahydrobenzo[c][1,7]naphthyridin-1-yl)-6-(difluoromethyl)-5-fluoro-N-methyl-1H-indole-2-carboxamide] | – | 2450 nM
CN(C(=O)C1(O)CCCCC1)[C@@H]1COCc2[nH]c(=O)c3cc(F)c(F)cc3c21 [Compound 211, (S)-N-(8,9-Difluoro-6-oxo-1,4,5,6-tetrahydro-2H-pyrano[3,4-c]isoquinolin-1-yl)-1-hydroxy-N-methylcyclohexane-1-carboxamide] | 7660 nM | –
Cc1ccc(C(=O)N(C)[C@@H]2COCc3[nH]c(=O)c4cc(F)c(F)cc4c32)cc1F [Compound 137, (S)-N-(8,9-Difluoro-6-oxo-1,4,5,6-tetrahydro-2H-pyrano[3,4-c]isoquinolin-1-yl)-3-fluoro-N,4-dimethylbenzamide] | 60 nM | –
COC1OC[C@@H](N(C)C(=O)c2cc3cc(F)c(F)cc3[nH]2)c2c1[nH]c(=O)c1cc(F)c(F)cc21 (stereo partly drawn) [Compound 320, N-((1S)-8,9-Difluoro-4-methoxy-6-oxo-1,4,5,6-tetrahydro-2H-pyrano[3,4-c]isoquinolin-1-yl)-5,6-difluoro-N-methyl-1H-indole-2-carboxamide] | 30 nM | –
CN1Cc2[nH]c(=O)c3cc(F)ccc3c2C(N(C)C(=O)c2cc3ccccc3[nH]2)C1 (single isomer, unassigned) [Compound 61, N-(8-Fluoro-3-methyl-6-oxo-1,2,3,4,5,6-hexahydrobenzo[c][1,7]naphthyridin-1-yl)-N-methyl-1H-indole-2-carboxamide] | – | 2300 nM
CN(C(=O)c1cc2c(C(F)F)cccn2c1)C1CNCc2[nH]c(=O)c3cc(F)c(F)cc3c21 (single isomer, unassigned) [Compound 430, N-(8,9-Difluoro-6-oxo-1,2,3,4,5,6-hexahydrobenzo[c][1,7]naphthyridin-1-yl)-8-(difluoromethyl)-N-methylindolizine-2-carboxamide] | – | 6300 nM
CN(C(=O)c1cc2sc(Cl)cc2[nH]1)C1CNCc2[nH]c(=O)c3cc(F)c(F)cc3c21 (single isomer, unassigned) [Compound 454, 2-chloro-N-(8,9-difluoro-6-oxo-1,2,3,4,5,6-hexahydrobenzo[c][1,7]naphthyridin-1-yl)-N-methyl-4H-thieno[3,2-b]pyrrole-5-carboxamide] | – | 20 nM
CN(C(=O)c1cnc(C(F)(F)F)c(F)c1)C1CNCc2[nH]c(=O)c3cc(F)c(F)cc3c21 (single isomer, unassigned) [Compound 435, N-(8,9-Difluoro-6-oxo-1,2,3,4,5,6-hexahydrobenzo[c][1,7]naphthyridin-1-yl)-5-fluoro-N-methyl-6-(trifluoromethyl)nicotinamide] | 260 nM | –
CN(C(=O)c1ccc(F)c(Cl)c1)[C@@H]1COCc2[nH]c(=O)c3cc(F)c(F)cc3c21 [Compound 112, (S)-3-Chloro-N-(8,9-difluoro-6-oxo-1,4,5,6-tetrahydro-2H-pyrano[3,4-c]isoquinolin-1-yl)-4-fluoro-N-methylbenzamide] | 40 nM | –
CN(C(=O)c1cc2c(Cl)cccn2c1)C1CNCc2[nH]c(=O)c3cc(F)c(F)cc3c21 (single isomer, unassigned) [Compound 508, 8-Chloro-N-(8,9-Difluoro-6-oxo-1,2,3,4,5,6-hexahydrobenzo[c][1,7]naphthyridin-1-yl)-N-methylindolizine-2-carboxamide] | – | 11600 nM
CN(C(=O)c1cc(F)c(C(F)(F)F)c(F)c1)[C@@H]1COCc2[nH]c(=O)c3cc(F)c(F)cc3c21 [Compound 139, (S)-N-(8,9-Difluoro-6-oxo-1,4,5,6-tetrahydro-2H-pyrano[3,4-c]isoquinolin-1-yl)-3,5-difluoro-N-methyl-4-(trifluoromethyl)benzamide] | 10 nM | –
